Measurements: PubChem BioAssay (NCI)
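GI50 marks 50% less growth. TGI denotes the concentration required for complete inhibition of growth.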

Legend:
Experiment in all cases: DTP human tumour cell line panel, 384-well format
CAKI-1 renal = tested on: CAKI-1 renal
HCT-116 colon = tested on: HCT-116 colon
CCRF-CEM leukemia = tested on: CCRF-CEM leukemia
SF-539 CNS = tested on: SF-539 CNS
T-47D breast = tested on: T-47D breast
SF-268 CNS = tested on: SF-268 CNS
BT-549 breast = tested on: BT-549 breast
MDA-MB-468 breast = tested on: MDA-MB-468 breast
A498 renal = tested on: A498 renal
OVCAR-5 ovarian = tested on: OVCAR-5 ovarian
NCI-H322M lung = tested on: NCI-H322M lung
SK-OV-3 ovarian = tested on: SK-OV-3 ovarian
HCT-15 colon = tested on: HCT-15 colon

Question: Which GI50 (CAKI-1 renal) does the source give for C[C@@H](O)[C@H](NC(=O)N[C@@H](CC(N)=O)c1nc([C@@H](N)CO)no1)C(=O)O here?
Answer: > 100 µM

Question: And the TGI (CAKI-1 renal)?
Answer: > 100 µM

Question: And the GI50 (HCT-116 colon)?
Answer: > 100 µM

Question: What about the TGI (HCT-116 colon) of the same molecule?
Answer: > 100 µM

Question: What about the GI50 (CCRF-CEM leukemia) of the same molecule?
Answer: > 100 µM

Question: And the TGI (CCRF-CEM leukemia)?
Answer: > 100 µM

Question: What about the GI50 (SF-539 CNS) of the same molecule?
Answer: > 100 µM

Question: What about the TGI (SF-539 CNS) of the same molecule?
Answer: > 100 µM

Question: And the GI50 (T-47D breast)?
Answer: > 100 µM

Question: And the TGI (T-47D breast)?
Answer: > 100 µM

Question: And the GI50 (SF-268 CNS)?
Answer: > 100 µM

Question: What about the TGI (SF-268 CNS) of the same molecule?
Answer: > 100 µM

Question: What about the GI50 (BT-549 breast) of the same molecule?
Answer: > 100 µM

Question: What about the TGI (BT-549 breast) of the same molecule?
Answer: > 100 µM

Question: What about the GI50 (MDA-MB-468 breast) of the same molecule?
Answer: > 100 µM

Question: What about the TGI (MDA-MB-468 breast) of the same molecule?
Answer: > 100 µM

Question: And the GI50 (A498 renal)?
Answer: > 100 µM

Question: And the TGI (A498 renal)?
Answer: > 100 µM

Question: What about the GI50 (OVCAR-5 ovarian) of the same molecule?
Answer: > 100 µM

Question: And the TGI (OVCAR-5 ovarian)?
Answer: > 100 µM

Question: And the GI50 (NCI-H322M lung)?
Answer: > 100 µM

Question: What about the TGI (NCI-H322M lung) of the same molecule?
Answer: > 100 µM

Question: And the GI50 (SK-OV-3 ovarian)?
Answer: > 100 µM

Question: And the TGI (SK-OV-3 ovarian)?
Answer: > 100 µM

Question: And the GI50 (HCT-15 colon)?
Answer: > 100 µM

Question: And the TGI (HCT-15 colon)?
Answer: > 100 µM
